Reference: paper PMC6560451, “Occurrence and Function of the Na^+-Translocating NADH:Quinone Oxidoreductase in Prevotella spp” (Microorganisms, 2019)

Molecular target: T1, NqrB and NqrC subunits of P. bryantii B14 (Segatella baroniae, UniProt D8DWB9+D8DWC0)
T1 sequence (D8DWC0 1-385): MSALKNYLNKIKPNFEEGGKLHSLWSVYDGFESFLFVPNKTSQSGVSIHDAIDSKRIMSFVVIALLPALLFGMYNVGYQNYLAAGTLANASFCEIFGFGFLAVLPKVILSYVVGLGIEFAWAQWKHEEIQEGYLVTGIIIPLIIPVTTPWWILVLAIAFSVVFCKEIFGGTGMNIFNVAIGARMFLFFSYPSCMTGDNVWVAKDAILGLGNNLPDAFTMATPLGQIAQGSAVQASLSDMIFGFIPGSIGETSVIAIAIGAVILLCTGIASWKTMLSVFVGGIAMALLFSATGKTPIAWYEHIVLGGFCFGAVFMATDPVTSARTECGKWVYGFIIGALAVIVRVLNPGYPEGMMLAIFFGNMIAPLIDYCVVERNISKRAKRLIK
T1 sequence (D8DWB9 1-210): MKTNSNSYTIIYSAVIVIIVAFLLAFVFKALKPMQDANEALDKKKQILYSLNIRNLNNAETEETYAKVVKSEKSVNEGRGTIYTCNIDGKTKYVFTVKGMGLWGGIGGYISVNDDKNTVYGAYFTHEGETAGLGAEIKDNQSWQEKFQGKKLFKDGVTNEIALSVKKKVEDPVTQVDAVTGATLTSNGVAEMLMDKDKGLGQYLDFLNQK
Assay: in-gel fluorescence after SDS-PAGE (excitation […] nm)
Assay type: biochemical

For `Cc1cc2nc3c(=O)[nH]c(=O)nc-3n(C[C@H](O)[C@H](O)[C@H](O)COP(=O)(O)O)c2cc1C` [flavin mononucleotide], the “in-gel fluorescence after SDS-PAGE (excitation 460 nm)” value was “verified by in-gel fluorescence detection of covalently bound FMN chromophores”.
